Measurements published in patent US9273052B2, “Phthalazinone ketone derivative, preparation method thereof, and pharmaceutical use thereof” (Jiangsu Hansoh Pharmaceutical Co., Ltd., priority 2010, dated 2016).
Read-outs that look alike come from different tables or passages of the source. Values belong to the compound of their own block, whether it stands above or below them.

Tests used:
[1] = tested on: MDA-MB-436 cells; test: Cell proliferation inhibition assay (CCK8); assay type: cell-based; conditions: Homo sapiens, 72 hours
[2] = Pharmacokinetics assay in SD rats (LC/MS/MS plasma concentration); assay type: in vivo; conditions: 15 mg/kg; for AUC / half-life / MRT / Cmax / bioavailability: both sexes, rat, plasma; for AUC: read-out: Area Under Curve AUC; for half-life: read-out: Half-Life t1/2 (converted); for MRT: read-out: Mean Residence Time MRT; for Cmax: read-out: Plasma Conc. Cmax; for bioavailability: po
Protocol: The pharmacokinetic behavior of the compounds of the present invention was studied and evaluated in rats.
24 Healthy adult SD rats, male and female in half, were purchased from SINO-BRITSH SIPPR/BK LAB. ANIMAL LTD., CO, Certificate No.: SCXK (Shanghai) 2003-0002.
The intragastrical administration group: the right amount of tested compounds were weighed and dissolved in 0.5 mL of DMSO, diluted with physiological saline to 10 mL and prepared to 1.5 mg/mL.
The intravenous injection administration group: the right amount of tested compounds were weighed and added into […].
After an overnight fast, 24 healthy adult SD rats, male and female in half, were administered intragastrically at a dose of 15.0 mg/kg and an administration volume of 10 mL/kg.
(§1) The intragastrical administration group: blood samples (0.2 mL) were taken from orbital sinus at pre administration and at 0.25 hour, 0.5 hour, 1.0 hour, 1.5 hours, 2.0 hours, 3.0 hours, 4.0 hours, 6.0 hours, 7.0 hours, 9.0 hours, 12.0 hours and 24.0 hours post administration, stored in heparinized tubes and centrifuged for 20 minutes at 3,500 rpm to separate plasma. The plasma samples were stored at −20° C. The rats were fed at 2 hours after administration.
as §1, with “intravenous injection” for “intragastrical”, “2 minutes, 15 minutes,” for “0.25 hour,”, “hour,” for “hour, 1.5 hours,”, “8.0” for “7.0 hours, 9.0”, “C.” for “C. The rats were fed at 2 hours after administration.”
20 μL of rat blank plasmas taken at various time points after administration were added with 50 μL of internal standard solution and 140 μL of methanol and mixed for 3 minutes by a vortexer. The mixture was centrifuged for 10 minutes at 13,500 rpm. 20 μL of the supernatant was analyzed by LC-MS/MS. The main pharmacokinetic parameters were calculated by software DAS 2.0.

[3] = tested on: human colon carcinoma SW620; test: Antitumor effect with temozolomide on SW620 transplanted tumors in nude mice; assay type: in vivo; conditions: colon carcinoma SW620 in BALB/cA-nude mice; 1 mg/kg oral gavage + TMZ 50 mg/kg oral gavage; day 44
Protocol: The therapeutic effect of the compounds of the present invention administered in combination with temozolomide (TMZ) on transplanted tumors of human colon carcinoma SW620 or human breast cancer cells MX-1 in nude mice was evaluated by using BALB/cA-nude mice as test animals.
BALB/cA-nude mice, SPF, 16-20 g, female( ), were purchased from SINO-BRITSH SIPPR/BK LAB. ANIMAL LTD., CO. Certificate No.: SCXK(Shanghai) 2008-0016.
4.2 The right rib of the nude mice was subcutaneously inoculated with colon carcinoma cells SW620. After tumors grew to 339±132 mm^3, mice were randomly divided into teams (d0).
The volume of tumors and the weight of the mice were measured and recorded for 2 to 3 times per week.
The volume of tumor (V) was calculated by the follow equation: V=½×a×b^2 wherein: a, b represents length and width respectively. The antitumor rate(%)=(C−T)/C(%) wherein: T, C represents the tumor volume of the experimental group (tested compounds) and blank control group at the end of the experiment respectively. 5. Dosage, Dosage Regimens and the Results

SMILES: CNC(=O)c1nc(C(F)(F)F)n2c1CN(C(=O)c1cccc(Cc3n[nH]c(=O)c4ccccc34)c1)CC2 [Example 21, N-methyl-7-[3-[(4-oxo-3H-phthalazin-1-yl)methyl]benzoyl]-3-(trifluoromethyl)-6,8-dihydro-5H-imidazo[1,5-a]pyrazine-1-carboxamide]
IC50 [1]: 780 nM

SMILES: CNC(=O)c1nc(C(F)(F)F)n2c1CN(C(=O)c1cc(Cc3n[nH]c(=O)c4ccccc34)ccc1F)CC2 [Example 13, 7-[2-fluoro-5-[(4-oxo-3H-phthalazin-1-yl)methyl]benzoyl]-N-methyl-3-(trifluoromethyl)-6,8-dihydro-5H-imidazo[1,5-a]pyrazine-1-carboxamide]
IC50 [1]: 120 nM
AUC ([2]; intravenous injection): 29400 ± 18500 ng·h/mL
half-life ([2]; intravenous injection): 5.05 ± 1.34 h
MRT ([2]; intravenous injection): 0.89 ± 0.44 h
AUC ([2]; oral gavage): 4300 ± 3250 ng·h/mL
half-life ([2]; oral gavage): 6.01 ± 2.27 h
MRT ([2]; oral gavage): 1.87 ± 0.53 h
Cmax ([2]; oral gavage): 3070 ± 719 ng/mL
bioavailability [2]: 16.8%
Apparent Distribution Volume Vz/F ([2]; intravenous injection): 4.70 ± 2.17 kg⁻¹
Clearance CL/F ([2]; intravenous injection): 0.72 ± 0.45 1/11/kg
Apparent Distribution Volume Vz/F ([2]; oral gavage): 49.9 ± 52.9 kg⁻¹
Clearance CL/F ([2]; oral gavage): 4.47 ± 3.78 1/11/kg

SMILES: CN(C)C(=O)c1nc(C(F)(F)F)n2c1CN(C(=O)c1cc(Cc3n[nH]c(=O)c4ccccc34)ccc1F)CC2 [Example 22, 7-[2-fluoro-5-[(4-oxo-3H-phthalazin-1-yl)methyl]benzoyl]-N,N-dimethyl-3-(trifluoromethyl)-6,8-dihydro-5H-imidazo[1,5-a]pyrazine-1-carboxamide]
IC50 [1]: 650 nM

SMILES: O=C(c1cc(Cc2n[nH]c(=O)c3ccccc23)ccc1F)N1CCn2c(nnc2C(F)(F)F)C1 [Example 1, 4-[[4-fluoro-3-[3-(trifluoromethyl)-6,8-dihydro-5H-[1,2,4]triazolo[4,3-a]pyrazine-7-carbonyl]phenyl]methyl]-2H-phthalazin-1-one]
IC50 [1]: 0.8 nM
antitumor rate (%) [3]: ++ (“++”: 60%~80%)

SMILES: O=C(c1cc(Cc2n[nH]c(=O)c3ccccc23)ccc1F)N1CCn2ncnc2C1 [Example 16, 4-[[3-(6,8-dihydro-5H-[1,2,4]triazolo[1,5-a]pyrazine-7-carbonyl)-4-fluoro-phenyl]methyl]-2H-phthalazin-1-one]
IC50 [1]: 99 nM

SMILES: O=C(c1cc(Cc2n[nH]c(=O)c3ccccc23)ccc1F)N1CCn2c(cnc2C(F)(F)F)C1 [Example 5, 4-[[4-fluoro-3-[3-(trifluoromethyl)-6,8-dihydro-5H-imidazo[1,5-a]pyrazine-7-carbonyl]phenyl]methyl]-2H-phthalazin-1-one]
IC50 [1]: 320 nM

SMILES: O=C(c1cc(Cc2n[nH]c(=O)c3ccccc23)ccc1F)N1CCn2c(nnc2CC(F)(F)F)C1 [Example 26, 4-[[4-fluoro-3-[3-(2,2,2-trifluoroethyl)-6,8-dihydro-5H-[1,2,4]triazolo[4,3-a]pyrazine-7-carbonyl]phenyl]methyl]-2H-phthalazin-1-one]
IC50 [1]: 3 nM

SMILES: O=C(c1cc(Cc2n[nH]c(=O)c3ccccc23)ccc1F)N1CCn2cc(C(F)(F)F)nc2C1 [Example 12, 4-[[4-fluoro-3-[2-(trifluoromethyl)-6,8-dihydro-5H-imidazo[1,2-a]pyrazine-7-carbonyl]phenyl]methyl]-2H-phthalazin-1-one]
IC50 [1]: 590 nM

SMILES: O=C(c1cccc(Cc2n[nH]c(=O)c3ccccc23)c1)N1CCn2c(nnc2C(F)(F)F)C1 [Example 15, 4-[[3-[3-(trifluoromethyl)-6,8-dihydro-5H-[1,2,4]triazolo[4,3-a]pyrazine-7-carbonyl]phenyl]methyl]-2H-phthalazin-1-one]
IC50 [1]: 0.9 nM

SMILES: O=C(c1cc(Cc2n[nH]c(=O)c3ccccc23)ccc1F)N1CCn2cnnc2C1 [Example 17, 4-[[3-(6,8-dihydro-5H-[1,2,4]triazolo[4,3-a]pyrazine-7-carbonyl)-4-fluoro-phenyl]methyl]-2H-phthalazin-1-one]
IC50 [1]: 61 nM

Continued by falling IC50 [1], values first:

IC50 [1]: 610 nM
SMILES: O=C(c1cc(Cc2n[nH]c(=O)c3ccccc23)ccc1F)N1CCn2c(C(F)(F)F)nc(C(=O)N3CCCC3)c2C1 [Example 18, 4-[[4-fluoro-3-[1-(pyrrolidine-1-carbonyl)-3-(trifluoromethyl)-6,8-dihydro-5H-imidazo[1,5-a]pyrazine-7-carbonyl]phenyl]methyl]-2H-phthalazin-1-one]

IC50 [1]: 190 nM
SMILES: COC(=O)c1nc(C(F)(F)F)n2c1CN(C(=O)c1cc(Cc3n[nH]c(=O)c4ccccc34)ccc1F)CC2 [Example 3, methyl 7-[2-fluoro-5-[(4-oxo-3H-phthalazin-1-yl)methyl]benzoyl]-3-(trifluoromethyl)-6,8-dihydro-5H-imidazo[1,5-a]pyrazine-1-carboxylate]

IC50 [1]: 140 nM
SMILES: NC(=O)c1nc(C(F)(F)F)n2c1CN(C(=O)c1cc(Cc3n[nH]c(=O)c4ccccc34)ccc1F)CC2 [Example 10, 7-[2-fluoro-5-[(4-oxo-3H-phthalazin-1-yl)methyl]benzoyl]-3-(trifluoromethyl)-6,8-dihydro-5H-imidazo[1,5-a]pyrazine-1-carboxamide]

IC50 [1]: 72 nM
SMILES: O=C(NCC1CC1)c1nc(C(F)(F)F)n2c1CN(C(=O)c1cc(Cc3n[nH]c(=O)c4ccccc34)ccc1F)CC2 [Example 24, N-(cyclopropylmethyl)-7-[2-fluoro-5-[(4-oxo-3H-phthalazin-1-yl)methyl]benzoyl]-3-(trifluoromethyl)-6,8-dihydro-5H-imidazo[1,5-a]pyrazine-1-carboxamide]

IC50 [1]: 71 nM
AUC ([2]; intravenous injection): 34800 ± 15500 ng·h/mL
half-life ([2]; intravenous injection): 0.94 ± 0.26 h
MRT ([2]; intravenous injection): 1.25 ± 0.53 h
AUC ([2]; oral gavage): 4500 ± 6670 ng·h/mL
half-life ([2]; oral gavage): 3.87 ± 4.03 h
MRT ([2]; oral gavage): 12.7 ± 15.4 h
Cmax ([2]; oral gavage): 971 ± 1400 ng/mL
bioavailability [2]: 12.9%
Apparent Distribution Volume Vz/F ([2]; intravenous injection): 0.64 ± 0.19 kg⁻¹
Clearance CL/F ([2]; intravenous injection): 0.52 ± 0.29 1/11/kg
Apparent Distribution Volume Vz/F ([2]; oral gavage): 103 ± 134 kg⁻¹
Clearance CL/F ([2]; oral gavage): 15.4 ± 12.4 1/11/kg
SMILES: CCNC(=O)c1nc(C(F)(F)F)n2c1CN(C(=O)c1cc(Cc3n[nH]c(=O)c4ccccc34)ccc1F)CC2 [Example 7, N-ethyl-7-[2-fluoro-5-[(4-oxo-3H-phthalazin-1-yl)methyl]benzoyl]-3-(trifluoromethyl)-6,8-dihydro-5H-imidazo[1,5-a]pyrazine-1-carboxamide]

IC50 [1]: 2 nM
SMILES: O=C(c1cc(Cc2n[nH]c(=O)c3ccccc23)ccc1F)N1CCn2c(nnc2C(F)F)C1 [Example 23, 4-[[3-[3-(difluoromethyl)-6,8-dihydro-5H-[1,2,4]triazolo[4,3-a]pyrazine-7-carbonyl]-4-fluoro-phenyl]methyl]-2H-phthalazin-1-one]
